Results published in patent publication US9969979B2, “Methods for producing cells having a phenotype of a primary human hepatocytes and compositions” (The Governors of the University of Alberta, priority 2012, dated 2018).

System: Huh7.5 cells
Test: Quantitative RT-PCR of hepatocyte differentiation markers in cultured Huh7.5 cells
Format: cell-based, human
Conditions: Huh7.5 cells grown 3 weeks, relative to FBS
Experimental: RNA was isolated from cells using Trizol, according to the instructions of the manufacturer. cDNA was produced from the RNA using Quantitect Reverse Transcription kit (Qiagen). Gene specific primer-probe sets were designed by Applied Biosystems. An Applied Biosystems 7900HT Fast Real-Time PCR system was used for the quantitation of gene products. Gene expression was calculated relative to HPRT according to Pfaffl (Pfaffl M W. Nucleic Acids Res 29: e45, 2001).
To further evaluate the effect of culturing cells in HS-containing medium, and to assess whether these cells underwent differentiation to a primary hepatocyte-like cell, level of expression of hepatocyte differentiation marker were assayed at 7 days and 21 days after transfer of Huh7.5 cells into HS-supplemented medium. After 7 days only minor changes in hepatocyte markers were observed. (FIG. 3A) However, after 21 days, the expression of the hepatic differentiation markers albumin and alpha1-antiTrypsin was increased approximately 4 fold in cells grown in human serum compared to FBS. The level of expression of these proteins is similar to the level of expression of human primary hepatocytes in culture.
DMSO, (dimethyl sulfoxide) has been reported to induce growth arrest in HuH-7 or -derived cells, and other hepatoma cells. (Sainz et al. (2006) J Virol 80: 10253-10257). […]

Compound: C[S+](C)[O-] [DMSO, dimethyl sulfoxide]
- Albumin expression: slight increase
